According to patent US7211685B2, “Calcium receptor antagonists” (Japan Tobacco Inc., priority 2000, dated 2007):
Where a name gives a salt, the structure may show the parent alone.

How the values were obtained:
human calcium receptor = target: T1, human calcium receptor (Homo sapiens, UniProt P41180); experiment: Evaluation of antagonistic action on calcium receptor using reporter gene (luciferase); format: cell-based
T1 construct: expressed in transfected cells; host or cells: cell strain derived from rat adrenal
T1 sequence (P41180 20-1078): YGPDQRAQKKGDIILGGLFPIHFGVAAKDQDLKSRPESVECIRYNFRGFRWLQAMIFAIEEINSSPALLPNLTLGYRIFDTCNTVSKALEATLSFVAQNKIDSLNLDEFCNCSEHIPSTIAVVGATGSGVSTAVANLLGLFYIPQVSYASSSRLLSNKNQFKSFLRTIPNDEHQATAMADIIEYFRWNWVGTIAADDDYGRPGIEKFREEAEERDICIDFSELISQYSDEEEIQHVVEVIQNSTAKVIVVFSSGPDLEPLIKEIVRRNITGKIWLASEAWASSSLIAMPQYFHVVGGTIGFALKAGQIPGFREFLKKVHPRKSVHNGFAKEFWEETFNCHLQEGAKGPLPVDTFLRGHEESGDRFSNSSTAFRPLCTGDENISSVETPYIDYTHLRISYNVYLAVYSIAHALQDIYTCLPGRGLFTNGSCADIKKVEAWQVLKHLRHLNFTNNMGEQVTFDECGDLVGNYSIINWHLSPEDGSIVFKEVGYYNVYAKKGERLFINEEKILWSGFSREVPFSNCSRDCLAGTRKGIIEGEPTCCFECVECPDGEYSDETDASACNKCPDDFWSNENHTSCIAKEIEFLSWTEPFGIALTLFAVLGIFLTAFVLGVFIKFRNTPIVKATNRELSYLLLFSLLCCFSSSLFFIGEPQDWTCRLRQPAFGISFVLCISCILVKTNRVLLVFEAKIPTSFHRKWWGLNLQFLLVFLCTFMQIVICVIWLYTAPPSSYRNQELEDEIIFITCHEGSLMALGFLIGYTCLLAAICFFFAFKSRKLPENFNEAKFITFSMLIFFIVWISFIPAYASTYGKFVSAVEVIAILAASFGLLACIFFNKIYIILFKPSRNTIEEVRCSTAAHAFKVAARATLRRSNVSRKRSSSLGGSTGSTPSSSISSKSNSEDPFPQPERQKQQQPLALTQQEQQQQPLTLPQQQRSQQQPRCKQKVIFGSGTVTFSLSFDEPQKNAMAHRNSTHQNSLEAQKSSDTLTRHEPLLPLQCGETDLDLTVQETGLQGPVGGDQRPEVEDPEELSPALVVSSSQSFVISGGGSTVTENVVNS
Procedure: Evaluation of Antagonistic Action on Calcium Receptor Using Reporter Gene
Luciferase cDNA and human calcium receptor cDNA were transfected into a cell strain derived from rat adrenal and the transformed cells were cultured overnight in a medium (F12 medium containing 0.5% dialyzed horse serum and 0.25% dialyzed bovine fetal serum). The next day, a dimethyl sulfoxide solution containing a test compound at 0.01–100 mM was diluted 100-fold with the medium and added to the test compound group at 10 μl per well. A medium containing 50 mM calcium chloride was added to the control group at 10 μl per well, such that the final calcium concentration of the medium became 5 mM. A medium alone was added to the blank group. After culture for 4 hr, luciferase substrate (PicaGene LT-2.0, TOYO INK) was added and the luciferase activity was measured with a photoluminometer. The inhibitory rate (%) was calculated from the obtained measured values according to the following formula.
Based on the results, the concentration (IC50) showing 50% inhibitory rate was determined.

PTH secretion [1] = experiment: PTH secretion promoting action, oral administration to male SD rats, serum PTH by rat PTH (1-84) ELISA; format: in vivo; details: for serum PTH concentration, 30 min later / serum PTH concentration, 120 min later / serum PTH concentration, 240 min later: male SD rats, oral, mean ± S.E.
Procedure: (§1) PTH Secretion Promoting Action
(§2) The test compound was orally administered to 6 to 9-week-old male SD rats (Charles River Japan, Inc.) fasted for 20 hr, using a solvent (5% ethanol, 0.5% aqueous methyl cellulose solution) at a dose of 30 mg/5 ml/kg and 100 mg/5 ml/kg. A solvent alone was orally administered to the control group at a dose of 5 ml/kg. The blood was drawn from the tail vein immediately before and 0.5, 1, 2, 4, 6 hr after the administration of the test compound, and sera were obtained. The serum PTH concentration was measured using rat PTH (1-84) ELISA kit (Nohon Medi-Physics). The results of the serum PTH concentration before and 30 min and 4 hr after the administration of the test compound are shown in Table 24, and the results of the serum PTH concentration before and 30 min and 2 hr after the administration of the test compound of the 30 mg/5 ml/kg administration group are shown in Table 25.
In FIG. 1, FIG. 2 and FIG. 3, the time-course changes of the serum PTH concentration at the dose (30 mg/kg) of Example 22, Example 23 and Example 24 are shown.

PTH release = details: OVX rat, cited from earlier work
[2] = OVX rat; cited from earlier work
[3] = test system: osteoblast and osteoclast; details: cited from earlier work
PTH secretion [4] = experiment: PTH secretion promoting action, oral administration to female Fisher rats, serum PTH by rat PTH (1-84) ELISA; format: in vivo; details: 30 mg/5 ml/kg, mean ± S.E.
Procedure: as §1
as §2, with “4” for “6”, “6-week-old female Fisher” for “9-week-old male SD”, “30” for “30 mg/5 ml/kg and 100”, “4” for “4, 6”, “26.” for “24, and the results of the serum PTH concentration before and 30 min and 2 hr after the administration of the test compound of the 30 mg/5 ml/kg administration group are shown in Table 25.”

[5] = Table 25, 30 mg/5 ml/kg administration group
[6] = 100 mg/kg administration group (lower line)

| IC50 (human calcium receptor; Table 25, final calcium 5 mM) | IC50 (human calcium receptor; Table 24, final calcium 5 mM) | Compound | serum PTH concentration, 30 min later (PTH secretion [1]; [5]) | serum PTH concentration, 120 min later (PTH secretion [1]; [5]) | also measured |
| --- | --- | --- | --- | --- | --- |
| 51 nM | – | CN(C)c1ccccc1C(OC[C@H](O)CNC(C)(C)Cc1ccc2ccccc2c1)C1CC1 (stereo partly drawn) [Example 82] | 121.9 ± 9.0 pg/mL | 68.5 ± 11.4 pg/mL | – |
| 64 nM | – | CC(C)(Cc1ccc2ccccc2c1)NC[C@@H](O)COC(c1cccc(C(N)=O)c1)C1CC1 (stereo partly drawn) [Example 80] | 156.6 ± 15.3 pg/mL | 76.1 ± 12.6 pg/mL | – |
| 67 nM | – | Cc1ccsc1C(OC[C@H](O)CNC(C)(C)Cc1ccc2ccccc2c1)C1CC1 (stereo partly drawn) [Example 100] | 130.1 ± 53.7 pg/mL | 49.3 ± 4.4 pg/mL | – |
| – | – | CC(C)(Cc1ccc2ccccc2c1)NC[C@@H](O)COc1cccc(Cl)c1C#N [NPS-2143] | – | – | PTH secretion promoting action, time course (FIG. 5) (PTH secretion [1]; 30 mg/kg, rat): sustained secretion promoting action; PTH concentration in blood after 4 hr (PTH release; NPS-2143 100 μmol/kg): about 140 pg/ml; PTH concentration in blood at 30 min (PTH release; NPS-2143 100 μmol/kg): about 115 pg/ml; effect on bone (PTH release; oral administration): no bone increase or decrease was found; concentration in blood of NPS-2143 after 24 hr [2]: not more than 10 ng/ml; concentration in blood of NPS-2143 at 8 hr after administration [2]: above 100 ng/ml; direct effect on osteoblast and osteoclast in vitro [3]: no direct effect |
| – | 22 nM | COc1ccccc1[C@H](OC[C@H](O)CNC(C)(C)Cc1ccc2ccccc2c1)C1CC1 [Example 24, (2R)-1-[1,1-Dimethyl-2-(naphthalen-2-yl)ethylamino]-3-[(1R)-(cyclopropyl)(2-methoxyphenyl)methoxy]propan-2-ol] | – | – | – |
| – | 70 nM | COc1ccccc1C(C)OC[C@H](O)CNC(C)(C)Cc1ccc2ccccc2c1 (stereo partly drawn) [Example 5, (2R)-1-[1,1-Dimethyl-2-(naphthalen-2-yl)ethylamino]-3-[1-(2-methoxyphenyl)ethoxy]propan-2-ol hydrochloride] | – | – | – |
| – | 45 nM | Cc1ccccc1[C@H](OC[C@H](O)CNC(C)(C)Cc1ccc2ccccc2c1)C1CC1.O=C(O)/C=C/C(=O)O [Example 62] | – | – | serum PTH concentration, 30 min later (PTH secretion [4]): 620.6 ± 34.2 pg/mL; serum PTH concentration, 240 min later (PTH secretion [4]): 100.1 ± 11.7 pg/mL; serum PTH concentration, before administration (PTH secretion [4]): 82.9 ± 14.5 pg/mL |
| – | 41 nM | COc1ccccc1C(OC[C@H](O)CNC(C)(C)Cc1ccc2ccccc2c1)C1CC1 (stereo partly drawn) [Example 1, (2R)-1-[1,1-Dimethyl-2-(naphthalen-2-yl)ethylamino]-3-[(cyclopropyl)(2-methoxyphenyl)methoxy]propan-2-ol] | – | – | serum PTH concentration, 30 min later (PTH secretion [1]; [6]): 160.0 ± 13.8 pg/mL; serum PTH concentration, 240 min later (PTH secretion [1]; [6]): 58.3 ± 7.3 pg/mL |
| – | 27 nM | Cc1ccccc1C(OC[C@H](O)CNC(C)(C)Cc1ccc2ccccc2c1)C1CC1 (stereo partly drawn) [Example 2, (2R)-1-[1,1-Dimethyl-2-(naphthalen-2-yl)ethylamino]-3-[(cyclopropyl) (2-methylphenyl)methoxy]propan-2-ol] | – | – | serum PTH concentration, 30 min later (PTH secretion [1]; [6]): 154.8 ± 17.1 pg/mL; serum PTH concentration, 240 min later (PTH secretion [1]; [6]): 85.8 ± 17.3 pg/mL |
| – | – | CC(C)(Cc1ccc2ccccc2c1)NC[C@@H](O)CO[C@@H](c1ccccc1CO)C1CC1 [Example 58, (2R)-1-[1,1-Dimethyl-2-(naphthalen-2-yl)ethylamino]-3-[(1R)-(cyclopropyl)[2-(hydroxymethyl)phenyl]methoxy]propan-2-ol Hemifumarate] | – | – | serum PTH concentration, 30 min later (PTH secretion [4]): 644.4 ± 65.2 pg/mL; serum PTH concentration, 240 min later (PTH secretion [4]): 394.1 ± 100.9 pg/mL; serum PTH concentration, before administration (PTH secretion [4]): 179.2 ± 45.6 pg/mL |
| – | – | rat PTH (1-34): rat parathyroid hormone fragment (1-34) administered to OVX rat (AVSEIQLMHNLGKHLASVERMQWLRKKLQDVHNF; Parathyroid hormone; UniProt P04089 32-65, looked up, fragment) | – | – | PTH concentration in blood, peak in 30 min (PTH release; rat PTH (1-34) 5 μg/kg): about 175 pg/ml; time to restore original PTH level in blood (PTH release; rat PTH (1-34) 5 μg/kg): 2 h |
| 49 nM | – | CC(C)(Cc1ccc2ccccc2c1)NC[C@@H](O)COC(c1cccc(C#N)c1)C1CC1 (stereo partly drawn) [Example 105] | 115.4 ± 20.0 pg/mL | 74.3 ± 12.1 pg/mL | – |
| – | 59 nM | COc1ccccc1[C@@H](C)OC[C@H](O)CNC(C)(C)Cc1ccc2ccccc2c1 [Example 22, (2R)-1-[1,1-Dimethyl-2-(naphthalen-2-yl)ethylamino]-3-[(1R)-1-(2-methoxyphenyl)ethoxy]propan-2-ol hydrochloride] | – | – | – |
| – | 560 nM | CC(C)(Cc1ccc2ccccc2c1)NC[C@@H](O)COCc1ccccc1 [Comparative Example 1, reference compound] | – | – | serum PTH concentration, 30 min later (PTH secretion [1]; [6]): 139.0 ± 18.8 pg/mL; serum PTH concentration, 240 min later (PTH secretion [1]; [6]): 78.9 ± 12.3 pg/mL; blood PTH concentration at 30 min relative to that before administration (PTH secretion [1]; 100 mg/kg, 30 min after administration): 1.3 times |
| – | 27 nM | Cc1ccccc1[C@H](OC[C@H](O)CNC(C)(C)Cc1ccc2ccccc2c1)C1CC1 [Example 23, (2R)-1-[1,1-Dimethyl-2-(naphthalen-2-yl)ethylamino]-3-[(1R)-(cyclopropyl)(2-methylphenyl)methoxy]propan-2-ol] | – | – | – |
| – | – | CC(C)(Cc1ccc2ccccc2c1)NC[C@@H](O)CO[C@H](c1ccccc1CO)C1CC1 [Example 59, (2R)-1-[1,1-Dimethyl-2-(naphthalen-2-yl)ethylamino]-3-[(1S)-(cyclopropyl)[2-(hydroxymethyl)phenyl]methoxy]propan-2-ol Hemifumarate] | – | – | serum PTH concentration, 30 min later (PTH secretion [4]): 313.4 ± 103.3 pg/mL; serum PTH concentration, 240 min later (PTH secretion [4]): 62.2 ± 10.3 pg/mL; serum PTH concentration, before administration (PTH secretion [4]): 189.8 ± 90.9 pg/mL |

| Compound | IC50 (human calcium receptor; Table 25, final calcium 5 mM) | IC50 (human calcium receptor; Table 24, final calcium 5 mM) | serum PTH concentration, 30 min later (PTH secretion [1]; [5]) | serum PTH concentration, 120 min later (PTH secretion [1]; [5]) | also measured |
| --- | --- | --- | --- | --- | --- |
| COc1ccc(CC(C)(C)NC[C@@H](O)CO[C@@H](c2ccccc2C)C2CC2)cc1C [Example 95] | 29 nM | – | 199.1 ± 25.8 pg/mL | 80.4 ± 9.6 pg/mL | – |
| COc1ccc(CC(C)(C)NC[C@@H](O)CO[C@@H](c2ccccc2C)C2CC2)cc1C [Example 127] | 133 nM | – | 265.3 ± 22.3 pg/mL | 75.2 ± 7.3 pg/mL | – |
| Cc1ccc(CC(C)(C)NC[C@@H](O)CO[C@@H](c2ccccc2C)C2CC2)cc1C [Example 111] | 24 nM | – | 236.3 ± 60.8 pg/mL | 65.3 ± 6.4 pg/mL | – |
